Assays:
S. paucimobilis = assay type: cell-based, Sphingomonas paucimobilis; details: 2 h
Description: (§1) The stability of the peptides against one Gram-positive (B. licheniformis) and Gram-negative (S. paucimobilis) bacteria was assessed by determining their MIC in chymotrypsin (protease), serum, and salt (NaCl). The experiments were adopted from Selvarajan et.al. The fold change in MIC with respect to the control was calculated and determined for each peptide against the microbial clusters.
(§2) To determine the susceptibility of the engineered peptides, which are abundant in Trp, to protease degradation, chymotrypsin, which cleaves Tyr, Phe, and Trp at physiological pH was chosen as the model protease. The protocol described by Wang et.al. (2014) was used with slight modifications. Peptides were incubated with chymotrypsin at a molar ratio of 40:1 (peptide: protease) in 10 mM PBS buffer (pH7.4) at 37 °C, and samples were analyzed after 2 h. The enzyme reaction was terminated by incubating the samples at 80 °C for 10 min. The incubated peptide mixtures were then serially diluted in 96-well plates to determine the MIC values of the microbial strains.
(§3) The stability of the peptides in the presence of the serum was tested using a 10% fetal bovine serum (heat inactivated).
(§4) We also studied the effects of 600 mM NaCl (in vitro) and natural seawater (NSW) on the MICs of the engineered peptides.

SP+BL coculture = assay type: cell-based, S. paucimobilis + B. licheniformis
Description: (§5) All of the bacterial species were grown overnight at 37 °C in LB broth. 10^7 CFU/mL of cells were resuspended in fresh culture and grown until the mid log phase. , The bacterial cells were adjusted to a concentration of 5 × 10^5 CFU/mL to quantify the MIC. Equal volumes of the respective bacterial cultures were incubated with the serially diluted peptides in 96-well microtiter plate and incubated overnight at 37 °C in ambient air. Microorganisms without peptides were treated as the positive control, while uninoculated broth was used as the negative control. The MIC was taken as the lowest peptide concentration at which observable bacteria growth was inhibited, as measured by a microplate reader (Biotek Synergy H1 microplate reader). Experiments were performed in triplicates, and the mean MIC values were determined. A similar study was performed to understand the effect of peptide purity, i.e., ranging from 70 to 95%, on the peptide MIC. […]
(§6) fresh medium at equal proportions (v/v). Multiple combinations of microbial cocultures were prepared […]
(§7) Table S2. Schematic representation of the microbial cocultures grown in lab.
(§8) Bacterial clusters Fungal clusters
(§9) Gram-positive Gram-negative
(§10) Actinobacteria/DN Firmicutes/BL Proteobacteria/SP Ascomycota/HR […]
(§11) (b) The three upper panels […]
(§12) controlling the growth of microbial cocultures.

B. licheniformis = assay type: cell-based, Bacillus licheniformis; details: 2 h
Description: as §1, §2, §3, §4

HR+BL coculture = assay type: cell-based, H. resinae + B. licheniformis
Description: as §5, §6, §7, §8, §9, §10, §11, §12

HR+BL+DN coculture = assay type: cell-based, H. resinae + B. licheniformis + D. nishinomiyaensis
Description: as §5, §6, §7, §8, §9, §10, §11, §12

[1] = tested on: Macrococcus caseolyticus (MC) ATCC 13548; assay type: cell-based
How it was run: (§13)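 Bacteria grown overnight at 37 °C in LB, subcultured to mid-log, then adjusted to 5 × 10^5 CFU/mL and mixed with equal volumes of serially diluted peptide. After overnight incubation at 37 °C in ambient air, MIC was the lowest concentration inhibiting growth by plate-reader measurement; mean of triplicates.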

[2] = tested on: Pseudomonas aeruginosa (PA) ATCC 39327; assay type: cell-based; details: ATCC 39327
How it was run: as §13

[3] = tested on: Sphingomonas paucimobilis (SP); assay type: cell-based
How it was run: as §13

[4] = tested on: Micrococcus yunnanensis (MY) ATCC 12698; assay type: cell-based
How it was run: as §13

[5] = tested on: Dermacoccus nishinomiyaensis (DN) ATCC 29093; assay type: cell-based
How it was run: as §13

[6] = tested on: Bacillus licheniformis (BL) ATCC 14580; assay type: cell-based; details: ATCC 14580
How it was run: as §13

BL+DN coculture = assay type: cell-based, B. licheniformis + D. nishinomiyaensis
Description: as §5, §6, §7, §8, §9, §10, §11, §12

DN+SP coculture = assay type: cell-based, D. nishinomiyaensis + S. paucimobilis
Description: as §5, §6, §7, §8, §9, §10, §11, §12

HR+BL+SP coculture = assay type: cell-based, H. resinae + B. licheniformis + S. paucimobilis
Description: as §5, §6, §7, §8, §9, §10, §11, §12

HR+DN coculture = assay type: cell-based, H. resinae + D. nishinomiyaensis
Description: as §5, §6, §7, §8, §9, §10, §11, §12

HR+DN+SP coculture = assay type: cell-based, H. resinae + D. nishinomiyaensis + S. paucimobilis
Description: as §5, §6, §7, §8, §9, §10, §11, §12

HR+SP coculture = assay type: cell-based, H. resinae + S. paucimobilis
Description: as §5, §6, §7, §8, §9, §10, §11, §12

[7] = tested on: Hormoconis resinae (HR) ATCC 20267; assay type: cell-based
Description: All of the bacterial species were grown overnight at 37 °C in LB broth. 10^7 CFU/mL of cells were resuspended in fresh culture and grown until the mid log phase. , The bacterial cells were adjusted to a concentration of 5 × 10^5 CFU/mL to quantify the MIC. Equal volumes of the respective bacterial cultures were incubated with the serially diluted peptides in 96-well microtiter plate and incubated overnight at 37 °C in ambient air. Microorganisms without peptides were treated as the positive control, while uninoculated broth was used as the negative control. The MIC was taken as the lowest peptide concentration at which observable bacteria growth was inhibited, as measured by a microplate reader (Biotek Synergy H1 microplate reader). Experiments were performed in triplicates, and the mean MIC values were determined. A similar study was performed to understand the effect of peptide purity, i.e., ranging from 70 to 95%, on the peptide MIC.
The same experimental procedures that were conducted for the antibacterial assay were used to determine the MIC of the peptides against the fungal strain, H. resinae.

[8] = tested on: Kocuria rosea (KR) ATCC 186; assay type: cell-based
How it was run: as §13

[9] = tested on: Roseomonas mucosa (RM) ATCC BAA-692; assay type: cell-based
How it was run: as §13

MIC under different treatments (S. paucimobilis) | MIC (SP+BL coculture) | MIC under different treatments (B. licheniformis) | MIC (HR+BL coculture) | MIC (HR+BL+DN coculture) | MIC [1] | MIC [2] | MIC [3] | MIC [4] | MIC [5] | MIC [6] | MIC (BL+DN coculture) | MIC (DN+SP coculture) | MIC (HR+BL+SP coculture) | MIC (HR+DN coculture) | MIC (HR+DN+SP coculture) | MIC (HR+SP coculture) | MIC [7] | MIC [8] | MIC [9] | SMILES
≤ 4 µM | 120 µM | ≤ 4 µM | 3.7 µM | 1.87 µM | 0.9 µM | 1.9 µM | 1.9 µM | 0.9 µM | 0.9 µM | 1.9 µM | 60 µM | 30 µM | 1.87 µM | 1.87 µM | 3.7 µM | 30 µM | – | – | – | CC[C@H](C)[C@H](N)C(=O)N[C@@H](CC(C)C)C(=O)N1CCC[C@H]1C(=O)N[C@@H](Cc1ccccc1)C(=O)N[C@@H](CCCCN)C(=O)N[C@@H](Cc1c[nH]c2ccccc12)C(=O)N1CCC[C@H]1C(=O)N[C@@H](Cc1c[nH]c2ccccc12)C(=O)N[C@@H](Cc1c[nH]c2ccccc12)C(=O)N1CCC[C@H]1C(=O)N[C@@H](Cc1c[nH]c2ccccc12)C(=O)N[C@@H](CCCNC(=N)N)C(=O)N[C@@H](CCCNC(=N)N)C(=O)O [P11]
≤ 4 µM | 7.5 µM | ≤ 4 µM | 7.5 µM | 0.9 µM | 1.9 µM | 3.8 µM | 0.9 µM | 0.9 µM | 0.9 µM | 0.9 µM | 1.87 µM | 15 µM | 0.9 µM | 0.9 µM | 7.5 µM | 7.5 µM | 3.8 µM | 1.9 µM | – | CC[C@H](C)[C@H](N)C(=O)N[C@@H](CC(C)C)C(=O)N[C@@H](Cc1ccc(O)cc1)C(=O)N[C@@H](Cc1c[nH]c2ccccc12)C(=O)N[C@@H](CCCCN)C(=O)N[C@@H](Cc1c[nH]c2ccccc12)C(=O)N1CCC[C@H]1C(=O)N[C@@H](Cc1c[nH]c2ccccc12)C(=O)N[C@@H](Cc1c[nH]c2ccccc12)C(=O)N1CCC[C@H]1C(=O)N[C@@H](Cc1c[nH]c2ccccc12)C(=O)N[C@@H](CCCNC(=N)N)C(=O)N[C@@H](CCCNC(=N)N)C(=O)O [P17]
≤ 4 µM | 1.87 µM | ≤ 4 µM | 0.9 µM | 7.5 µM | – | – | 1.9 µM | – | – | 1.9 µM | 30 µM | 3.7 µM | 3.7 µM | 0.9 µM | 15 µM | 0.9 µM | – | – | 1.9 µM | CC[C@H](C)[C@H](N)C(=O)N[C@@H](CC(C)C)C(=O)N1CCC[C@H]1C(=O)N[C@@H](Cc1c[nH]c2ccccc12)C(=O)N[C@@H](CCCCN)C(=O)N[C@@H](Cc1c[nH]c2ccccc12)C(=O)N1CCC[C@H]1C(=O)N[C@@H](Cc1c[nH]c2ccccc12)C(=O)N[C@@H](Cc1c[nH]c2ccccc12)C(=O)N1CCC[C@H]1C(=O)N[C@@H](Cc1c[nH]c2ccccc12)C(=O)N[C@@H](CCCCN)C(=O)N[C@@H](CCCNC(=N)N)C(=O)O [P3]
